Measured values taken from ChEMBL document CHEMBL1152169, “Synthesis and structure-activity relationships of selective norepinephrine reuptake inhibitors (sNRI) with improved pharmaceutical characteristics” (Bioorg Med Chem Lett, 2008).
Active and inactive are the calls of the source. The rule behind the calls is not given here.

Each compound was assayed against Sodium-dependent dopamine transporter (Homo sapiens, UniProt Q01959) (assay: Inhibition of dopamine uptake at human dopamine transporter).
In the case of `CNC[C@]1(O)Cc2ccccc2[C@@H]1Oc1ccccc1OC`, the Activity is reported as “inactive”. `CNC[C@]1(O)Cc2ccccc2[C@@H]1Oc1ccccc1SC` was tested, and the Activity was “inactive”. For `CNC[C@]1(O)Cc2ccccc2[C@@H]1Oc1cccc(F)c1C`, the Activity was “inactive”. For `CNC[C@]1(O)Cc2ccccc2[C@@H]1Oc1ccc(F)cc1C`, the Activity was “inactive”. In the case of `CNC[C@]1(O)Cc2ccccc2[C@@H]1Oc1ccccc1CO`, the Activity is reported as “inactive”. In the case of `CNC[C@]1(O)Cc2ccccc2[C@@H]1Oc1cc(F)ccc1C`, the Activity is reported as “inactive”. For `CNC[C@]1(O)Cc2ccccc2[C@@H]1Oc1ccc(C)cc1C`, the Activity was “inactive”. `CNC[C@]1(O)Cc2ccccc2[C@@H]1Oc1ccc(O)cc1C` was tested, and the Activity was “inactive”. `Cc1ccccc1OC1c2ccccc2CC1(O)CNCCO` (racemic) was tested, and the Activity was “inactive”. With `CNC[C@]1(O)Cc2ccccc2[C@@H]1Oc1cccc(O)c1C` the Activity was “inactive”. `CNC[C@]1(O)Cc2ccccc2[C@@H]1Oc1cccc(C)c1C` was tested, and the Activity was “inactive”. `CNC[C@]1(O)Cc2ccccc2[C@@H]1Oc1ccccc1F` was tested, and the Activity was “inactive”. In the case of `CNC[C@]1(OC)Cc2ccccc2[C@@H]1Oc1ccccc1C`, the Activity is reported as “inactive”. For `Cc1ccccc1O[C@H]1c2ccccc2C[C@@]1(O)CN`, the Activity was “inactive”. In the case of `CCNCC1(O)Cc2ccccc2C1Oc1ccccc1C` (racemic), the Activity is reported as “inactive”. For `Cc1ccccc1OC1c2ccccc2CC1(O)CN` (racemic), the Activity was “inactive”. In the case of `CNCC1(O)Cc2ccccc2C1Oc1ccccc1C` (racemic), the Activity is reported as “inactive”. For `CCc1ccccc1O[C@H]1c2ccccc2C[C@@]1(O)CNC`, the Activity was “inactive”. `CNC[C@]1(O)Cc2ccccc2[C@@H]1Oc1ccccc1C` was tested, and the Activity was “inactive”. In the case of `CNC[C@@H]1Cc2ccccc2[C@@H]1Oc1ccccc1C`, the Activity is reported as “inactive”. In the case of `CNC[C@]1(O)Cc2ccccc2[C@@H]1Oc1c(C)cccc1F`, the Activity is reported as “inactive”. In the case of `CNC[C@@]1(O)Cc2ccccc2[C@H]1Oc1ccccc1C`, the Activity is reported as “inactive”. `CNC[C@]1(O)Cc2ccccc2[C@@H]1Oc1ccccc1Cl` was tested, and the Activity was “inactive”. `CNC[C@]1(O)Cc2ccccc2[C@@H]1Oc1ccccc1-c1cccc2ccccc12` was tested, and the Activity was “inactive”. In the case of `CNCC1(O)Cc2ccccc2C1Sc1ccccc1C` (racemic), the Activity is reported as “inactive”. In the case of `CNCC1(O)Cc2ccccc2C1Cc1ccccc1C` (racemic), the Activity is reported as “inactive”.
